Measurements from patent US8835446B2, “Quinazoline derivatives and pharmaceutical compositions thereof” (Nippon Shinyaku Co., Ltd., priority 2005, dated 2014).
Where two headings read alike, the source gives them in different places.

Experiments:
Rabbits = details: rabbit, in vivo
Source text: Then, erythema and edema formation at the application site was observed. […] The mean value of the sum of erythema and edema scores was used as a simple primary skin irritation index. […]

Mice [1] = assay: Effect on scratching behavior induced by serotonin application in mice; format: in vivo, mouse; details: counted for 15 minutes
Description: To the cervical and dorsal area of male ICR mice (n=3 to 6) at the age of 4 to 6 weeks, 100 μl of a solution obtained by dissolving serotonin hydrochloride in ethanol at 0.1% (hereinafter referred to as serotonin) was applied, and the number of scratching behavior at the application site with the hind legs occurring immediately after the application was counted for 15 minutes after administration with a counter. Administration of a test compound was carried out by skin application, intravenous administration or oral administration. In the case of skin application, the test compound that was dissolved in ethanol was applied in an amount of 100 μl concurrently with serotonin. In the case of intravenous administration, the test compound that was dissolved in physiological saline was administered at a dose of 10 ml/kg at 5 minutes prior to the serotonin application. In the case of oral administration, the test compound that was dissolved in distilled water was administered at a dose of 10 ml/kg at 20 minutes prior to the serotonin application. The control group of each administration route was given the respective solvent, and the values of scratching behavior were compared between the control group and the test compound group.
The results obtained by skin application of the test compound are shown in Table 3; the results obtained by intravenous administration of the test compound are shown in Table 4; and the results obtained by oral administration of the test compound are shown in Table 5.

Mice [2] = assay: Acute toxicity test in mice; format: in vivo, mouse; details: intravenous, observed for 2 hours
Source text: Male ICR mice at the age of 4 to 6 weeks were used.

[3] = skin application, concentration 0.1% in ethanol, concurrently with serotonin
[4] = intravenous administration, dose 3 mg/kg, 5 minutes prior to serotonin

| SMILES | Simple primary skin irritation index (Rabbits; female, Kbs: JW, 24 h) | Average number of scratching behavior (Mice [1]; [3]) | other results |
| --- | --- | --- | --- |
| Cc1ccc2nc(C(=O)NCC(C)(C)C)nc(N[C@H]3CCCC[C@H]3NC(=N)N)c2c1.Cl.Cl [Comparative control B, 4-[((1S,2R)-2-{[amino(imino)methyl]amino}cyclohexyl)amino]-6-methyl-N-neopentyl quinazoline-2-carboxamide dihydrochloride, reference compound] |  |  | Simple primary skin irritation index (Rabbits): 2.4 |
| CCOCCNC(=O)c1nc(N[C@H]2CCCC[C@H]2NC(=N)N)c2cc(C)ccc2n1.Cl.Cl [Comparative control C, 4-[((1S,2R)-2-{[amino(imino)methyl]amino}cyclohexyl)amino]-N-(2-ethoxyethyl)-6-methylquinazoline-2-carboxamide dihydrochloride, reference compound] | 2.3 |  |  |
| COCCCNC(=O)c1nc(N[C@H]2CCCC[C@H]2NC(=N)N)c2cc(C)ccc2n1.Cl.Cl [Comparative control D, 4-[((1S,2R)-2-{[amino(imino)methyl]amino}cyclohexyl)amino]-N-(3-methoxypropyl)-6-methylquinazoline-2-carboxamide dihydrochloride, reference compound] | 2.0 |  |  |
| Cc1ccc2nc(C(=O)NC(C)C)nc(N[C@H]3CCCC[C@H]3NC(=N)N)c2c1.Cl.Cl [Comparative control E, 4-[((1S,2R)-2-{[amino(imino)methyl]amino}cyclohexyl)amino]-N-isopropyl-6-methylquinazoline-2-carboxamide dihydrochloride, reference compound] | 3.6 |  |  |
| COCCNC(=O)c1nc(N[C@H]2CCCC[C@H]2NC(=N)N)c2cc(C)ccc2n1.Cl.Cl [Comparative control F, 4-[((1S,2R)-2-{[amino(imino)methyl]amino}cyclohexyl)amino]-N-(2-methoxyethyl)-6-methylquinazoline-2-carboxamide dihydrochloride, reference compound] | 2.2 |  |  |
| COCCNC(=O)c1nc(N[C@H]2CCCC[C@H]2NC(C)=N)c2cc(C)ccc2n1.Cl.Cl [Example 1, 4-{[(1S,2R)-2-(ethanimidoylamino)cyclohexyl]amino}-N-(2-methoxyethyl)-6-methylquinazolin-2-carboxamide dihydrochloride] | 0.3 | 57.8 | Change in behavior (Mice [2]; 10 mg/kg): No obvious change |
| COC(C)(C)C(=N)N[C@@H]1CCCC[C@@H]1Nc1nc(C(=O)NCC(C)(C)C)nc2ccc(C)cc12.Cl.Cl [Example 19, N-(2,2-dimethylpropyl)-4-({(1S,2R)-2-[(2-methoxy-2-methylpropanimidoyl)amino]cyclohexyl}amino)-6-methylquinazolin-2-carboxamide dihydrochloride] | 0.4 | 69.2 |  |
| COCCCNC(=O)c1nc(N[C@H]2CCCC[C@H]2NC(=N)CCOC)c2cc(C)ccc2n1.Cl.Cl [Example 35, 4-({(1S,2R)-2-[(3-methoxypropanimidoyl)amino]cyclohexyl}amino)-N-(3-methoxypropyl)-6-methylquinazolin-2-carboxamide dihydrochloride] | 1.5 | 69.0 |  |
| Cc1ccc2nc(C(=O)NC(C)C)nc(N[C@H]3CCCC[C@H]3NC(=N)CCO)c2c1.Cl.Cl [Example 58, 4-({(1S,2R)-2-[(3-hydroxypropanimidoyl)amino]cyclohexyl}amino)-N-isopropyl-6-methylquinazolin-2-carboxamide dihydrochloride] | 0.4 | 55.5 | Change in behavior (Mice [2]; 10 mg/kg): No obvious change |
| COCCCNC(=O)c1nc(N[C@H]2CCCC[C@H]2NC(=N)CCO)c2cc(C)ccc2n1.Cl.Cl [Example 59, 4-({(1S,2R)-2-[(3-hydroxypropanimidoyl)amino]cyclohexyl}amino)-N-(3-methoxypropyl)-6-methylquinazolin-2-carboxamide dihydrochloride] | 0.2 | 57.8 |  |
| Cc1ccc2nc(C(=O)NCC(C)C)nc(N[C@H]3CCCC[C@H]3NC(=N)C(C)(C)O)c2c1.Cl.Cl [Example 60, 4-({(1S,2R)-2-[(2-hydroxy-2-methylpropanimidoyl)amino]cyclohexyl}amino)-N-isobutyl-6-methylquinazolin-2-carboxamide dihydrochloride] | 1.0 |  | Average number of scratching behavior (Mice [1]; [4]): 64.0; Change in behavior (Mice [2]; 5 mg/kg): No obvious change |
| CCOCCNC(=O)c1nc(N[C@H]2CCCC[C@H]2NC(=N)CCO)c2cc(C)ccc2n1.Cl.Cl [Example 61, N-(2-ethoxyethyl)-4-({(1S,2R)-2-[(3-hydroxypropanimidoyl)amino]cyclohexyl}amino)-6-methylquinazolin-2-carboxamide dihydrochloride] | 0.4 |  |  |
| COCCNC(=O)c1nc(N[C@H]2CCCC[C@H]2NC(=N)COC)c2cc(C)ccc2n1.Cl.Cl [Example 91, 4-({(1S,2R)-2-[(2-methoxyethanimidoyl)amino]cyclohexyl}amino)-N-(2-methoxyethyl)-6-methylquinazolin-2-carboxamide dihydrochloride] | 0.5 | 70.5 |  |
| COCCCNC(=O)c1nc(N[C@H]2CCCC[C@H]2NC(C)=N)c2cc(C)ccc2n1.Cl.Cl [Example 92, 4-{[(1S,2R)-2-(ethanimidoylamino)cyclohexyl]amino}-N-(3-methoxypropyl)-6-methylquinazolin-2-carboxamide dihydrochloride] | 0.0 | 76.3 | Average number of scratching behavior (Mice [1]; oral administration, dose 30 mg/kg, 20 minutes prior to serotonin): 141.0; Change in behavior (Mice [2]; 10 mg/kg): No obvious change |
| COCCCNC(=O)c1nc(N[C@H]2CCCC[C@H]2NC(=N)COC)c2cc(C)ccc2n1.Cl.Cl [Example 93, 4-({(1S,2R)-2-[(2-methoxyethanimidoyl)amino]cyclohexyl}amino)-N-(3-methoxypropyl)-6-methylquinazolin-2-carboxamide dihydrochloride] | 0.2 |  |  |
| CCOCCNC(=O)c1nc(N[C@H]2CCCC[C@H]2NC(C)=N)c2cc(C)ccc2n1.Cl.Cl [Example 94, 4-{[(1S,2R)-2-(ethanimidoylamino)cyclohexyl]amino}-N-(2-ethoxyethyl)-6-methylquinazolin-2-carboxamide dihydrochloride] | 1.0 |  |  |
| CCOCCNC(=O)c1nc(N[C@H]2CCCC[C@H]2NC(=N)COC)c2cc(C)ccc2n1.Cl.Cl [Example 95, N-(2-ethoxyethyl)-4-({(1S,2R)-2-[(2-methoxyethanimidoyl)amino]cyclohexyl}amino)-6-methylquinazolin-2-carboxamide dihydrochloride] | 0.7 |  |  |
| CC(=N)N[C@@H]1CCCC[C@@H]1Nc1nc(C(=O)NC(C)C)nc2ccc(C)cc12.Cl.Cl [Example 101, 4-{[(1S,2R)-2-(ethanimidoylamino)cyclohexyl]amino}-N-isopropyl-6-methylquinazolin-2-carboxamide dihydrochloride] | 2.6 | 56.8 | Change in behavior (Mice [2]; 10 mg/kg): No obvious change |
| COCCNC(=O)c1nc(N[C@H]2CCCC[C@H]2NC(N)=NOC)c2cc(C)ccc2n1.Cl.Cl [Example 208, 4-[((1S,2R)-2-{[amino(methoxyimino)methyl]amino}cyclohexyl)amino]-N-(2-methoxyethyl)-6-methylquinazolin-2-carboxamide dihydrochloride] | 0.2 | 81.0 | Average number of scratching behavior (Mice [1]; [4]): 53.8; Change in behavior (Mice [2]; 20 mg/kg): No obvious change |
| CON=C(N)N[C@@H]1CCCC[C@@H]1Nc1nc(C(=O)NCC(C)C)nc2ccc(C)cc12.Cl.Cl [Example 211, 4-[((1S,2R)-2-{[amino(methoxyimino)methyl]amino}cyclohexyl)amino]-N-isobutyl-6-methylquinazolin-2-carboxamide dihydrochloride] | 1.5 | 73.0 | Change in behavior (Mice [2]; 10 mg/kg): No obvious change |
| CON(C)C(=N)N[C@@H]1CCCC[C@@H]1Nc1nc(C(=O)NCC(C)C)nc2ccc(C)cc12.Cl.Cl [Example 236, 4-{[(1S,2R)-2-({imino[methoxy(methyl)amino]methyl}amino)cyclohexyl]amino}-N-isobutyl-6-methylquinazolin-2-carboxamide dihydrochloride] | 1.6 |  |  |
| COCCNC(=O)c1nc(N[C@H]2CCCC[C@H]2NC(N)=NOC)c2cc(C)ccc2n1.COCCNC(=O)c1nc(N[C@H]2CCCC[C@H]2NC(N)=NOC)c2cc(C)ccc2n1.O=S(=O)(O)O [Example 248, 4-[((1S,2R)-2-{[amino(methoxyimino)methyl]amino}cyclohexyl)amino]-N-(2-methoxyethyl)-6-methylquinazolin-2-carboxamide 1/2 sulfate] |  |  | Simple primary skin irritation index (Rabbits): 0.8 |
